# According to US10640457B2, “Histone acetyltransferase activators and uses thereof” (The Trustees of Columbia University in the City of New York, priority 2009, dated 2020):
# pIC50: −log10 of the molar value. “And” between values parts separate entries of the source, which are not always exact repeats. Identical values can stand only once. “Also recorded” adds a separate entry of the source.
# How the values were obtained:
# [1] = Pharmacokinetics and brain penetration, plasma and brain by LC-MS/MS; format: in vivo, BALB/c mice
# Protocol: After i.p. and i.v. administration at 20 mg/kg to BALB/c mice, plasma and brain concentrations were determined by LC-MS/MS.
# [2] = Kinetics of YF2 in tail blood; format: in vivo, mice; settings: 20 mg/kg i.p.
# Protocol: To this purpose, we administered the compound (20 mg/kg. i.p.) and then sampled blood from tails at different time points.
# [3] = test system: Aβ42-infused mice; assay: Two day radial arm water maze in Aβ-infused mice (YF2); format: in vivo
# Excerpt: The task is a hybrid of the Morris Water Maze (MWM) and the radial arm land maze. This task is altered in Aβ-infused mice. The motivation for the animals is the immersion in water. The mouse needed to swim in 6 alleys (arms) radiating from a central area until it found a hidden (submerged) platform at the end of one of the arms, based on visual cues placed in the room. […] The first day of the protocol was a training day. Mice were trained to identify the platform location by alternating between a visible and a hidden platform in a goal arm. The final 3 trials on day 1 and all 15 trials on day 2 used a hidden escape platform to force mice to use spatial cues to identify the location of the goal arm.
# To avoid learning limitations imposed by exhausting practice and to avoid fatigue that may result from consecutive trials, spaced practice training were established by running the mice in cohorts of 4 and alternating different cohorts through the 15 training trials over 3 hours testing periods each day. […] The number of incorrect arm entries (entries in arms with no platform) was counted. […] Failure to select an arm after 15 sec were counted as an error and the mouse was returned to the start arm. […]
# Next, mice from the first cohort completed trials 7-12 again using the alternating visible-hidden platform location. […] For data analysis, averages for each mouse were calculated using blocks of 3 trials. […]
# [4] = test system: YAC128 mice; assay: Open field in YAC128 Huntington's Disease mice; format: in vivo; settings: for effect of treatment on total locomotion (distance traveled, 30 min): age 6 mo., YF2 5 mg/kg
# Protocol: Animals: Mouse models of Huntington's Disease (YAC128) versus wildtype (WT) littermates.
# Open field: This assay is a common assay used to monitor total spontaneous locomotor activity and exploratory behavior in mouse models of Huntington's disease (HD). The spontaneous locomotor activity of the animals was measured using an automated photo-beam open-field system (Med-Associates, St Albans, Vt.). Mice were placed individually in the center of a clear open-field chamber (27.9 cm×27.9 cm×20 cm), and their horizontal and vertical activities were measured immediately for 30 min with three 16-beam UR arrays. Locomotor activity was assessed as the distance traveled in 5-min intervals. The number of mice typically used for open field range from 12 to 15 mice.
# [5] = in vivo, ip
# [6] = target: HDAC1 (Homo sapiens, UniProt Q13547); assay: HDAC1 fluorogenic activity assay; settings: for % Activity: Repeat1/Repeat2, listed as OA2
# [7] = IP administration 20 mg/kg, brain
# [8] = IV administration 20 mg/kg, brain
# Sequence of HDAC1 (Q13547 whole entry): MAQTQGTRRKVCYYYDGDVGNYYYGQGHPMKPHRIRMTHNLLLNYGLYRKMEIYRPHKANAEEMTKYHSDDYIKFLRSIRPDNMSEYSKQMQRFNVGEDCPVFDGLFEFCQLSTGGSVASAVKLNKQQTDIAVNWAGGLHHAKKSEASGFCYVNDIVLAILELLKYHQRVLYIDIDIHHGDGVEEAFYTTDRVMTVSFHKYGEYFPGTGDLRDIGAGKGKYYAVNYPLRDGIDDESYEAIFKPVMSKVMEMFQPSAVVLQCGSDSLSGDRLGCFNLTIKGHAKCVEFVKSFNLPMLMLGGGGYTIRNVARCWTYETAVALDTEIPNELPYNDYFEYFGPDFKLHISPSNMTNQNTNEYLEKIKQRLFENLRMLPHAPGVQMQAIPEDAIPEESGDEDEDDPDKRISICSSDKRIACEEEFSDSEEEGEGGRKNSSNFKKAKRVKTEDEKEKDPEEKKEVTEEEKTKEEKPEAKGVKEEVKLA
structure (smiles),measurement,setting,value
CCOc1cccc(OCCN(C)C)c1C(=O)Nc1ccc(Cl)c(C(F)(F)F)c1 [YF2],AUC0-t,[1]; [7],6493 ng·h/g
same,AUC0-∞,[1]; [7],6564 ng·h/g
same,F,[1]; [7],29.2%
same,F,"[1]; IP administration 20 mg/kg, plasma",41.0%
same,AUC0-t,[1]; [8],22222 ng·h/g
same,AUC0-∞,[1]; [8],22581 ng·h/g
same,time of peak in blood post-injection,[2],around 30 minutes
same,"RAWM performance, compound by itself","[3]; 5 mg/kg i.p., no Aβ",did not affect
same,Aβ-induced reference memory impairment (RAWM errors),"[3]; Aβ42-infused mice, i.p. 5 mg/kg 30 min prior to 1st and 7th trial, 5 mg/kg",ameliorated; also recorded: rescued
same,effect of treatment on total rearing or vertical movements,[4]; female YAC128 mice,no significant effect
same,"effect of treatment on total locomotion (distance traveled, 30 min)",[4]; female mice,diminish significantly (i.e. worsen)
same,effect of treatment on total rearing or vertical movements,[4]; male YAC128 mice,no significant effect
same,"effect of treatment on total locomotion (distance traveled, 30 min)",[4]; male mice,no significant effect
same,dose up to which no adverse effects were induced,[5],up to 300 mg/kg
same,pIC50,[6],< 3.70
same,% Activity,[6]; OA2 Log[nM] 0.5,98.80% and 98.28%
same,% Activity,[6]; OA2 Log[nM] 1.0,97.64% and 98.21%
same,% Activity,[6]; OA2 Log[nM] 1.5,96.72% and 97.14%
same,% Activity,[6]; OA2 Log[nM] 2.0,96.42% and 96.10%
same,% Activity,[6]; OA2 Log[nM] 2.5,95.81% and 97.49%
same,% Activity,[6]; OA2 Log[nM] 3.0,96.63% and 95.68%
same,% Activity,[6]; OA2 Log[nM] 3.5,93.12% and 97.60%
same,% Activity,[6]; OA2 Log[nM] 4.0,91.35% and 92.53%
same,% Activity,[6]; OA2 Log[nM] 4.5,92.01% and 90.19%
same,% Activity,[6]; OA2 Log[nM] 5.3,63.73% and 61.76%
